Source: patent publication US20100209486A1, “Method of enhancing CoenzymeQ10 levels in mammals” (priority 2009, published 2010)
Entries after “also recorded” stand apart in the source; their conditions may differ.

Assay: HPLC and MS determination of CoQ9 and CoQ10 in heart samples of supplemented guinea pigs
Format: in vivo, guinea pig
Conditions: 5 mg/kg/day CoQ9 oral for 4 weeks, heart tissue
Description: FIG. 3. HPLC chromatograms of a) Blank (mobile phase) b) CoQ9 standard solution c) CoQ10 standard solution and d) CoQ9 heart sample. The standards and sample solution were analyzed using an Agilent 1100 HPLC. The mobile phase was methanol-2-propanol-formic acid (45:55:0.05, v/v/v) containing methylamine at the concentration of 5 mmol/L. At a flow rate of 0.2 ml/min, 5 μl injections of the samples were done using the autosampler. The CoQ9 peak eluted at 2.39 minutes and the CoQ10 eluted at 2.86 minutes. However, the CoQ9 heart sample peak eluted at […], which is the same as CoQ10, thus indicating the presence of CoQ10 rather than CoQ9 in the sample.
FIG. 4. Mass Spectrometry (MS). (a) CoQ10 standard, b) CoQ9 standard, c) CoQ10 heart sample) Methylamine was used in the mobile phase to obtain the methyl ammonium adduct molecules of CoQ9 and CoQ10. The sensitivity of the adduct ions [M+CH3NH3]^+ was much higher than that of the protonated ions [M+H]^+ [7]. The MS spectra of both [M+CH3NH3][…] at m/z 826.5 for CoQ9 and m/z 894.6 for CoQ10 were observed. However, the CoQ9 heart sample indicated a mass peak at m/z 894.6, which matches the peak for CoQ10 and not CoQ9. Therefore, there was evidence of CoQ10 in the CoQ9 heart sample from the mass spec. data. This confirmed the hypothesis of bio-conversion of CoQ9 to CoQ10.
However, the retention time of CoQ9 heart sample indicated a retention time of 2.86 minutes and not 2.39 minutes (FIG. 3d). The retention time of the CoQ9 heart sample matched with that of CoQ10 rather than CoQ9. The qualitative analysis was done by identifying the compounds by their retention times. It was obvious that at this point CoQ9 was probably bio-converted to CoQ10. […]
Preparation of CoQ9 and CoQ10 heart samples: Animal preparation, drug pretreatment and isolated working heart preparation were done as described in example 1. […] The samples were analyzed immediately after preparation, and the remainder of the standard solutions was stored at 5° C. for future analysis. […]

In the case of `COC1=C(OC)C(=O)C(C/C=C(\C)CC/C=C(\C)CC/C=C(\C)CC/C=C(\C)CC/C=C(\C)CC/C=C(\C)CC/C=C(\C)CC/C=C(\C)CCC=C(C)C)=C(C)C1=O` [CoQ9, Coenzyme Q9], the “CoQ9 detected in the heart after CoQ9 supplementation” value is reported as “no CoQ9 could be detected in the heart; also recorded: very small or no amount of CoQ9”, the “bioconversion of CoQ9 into CoQ10” value is reported as “a substantial portion of CoQ9 had been bio-converted into CoQ10; also recorded: complete bioconversion of CoQ9 into CoQ10” and the “CoQ10 content in the heart after CoQ9 supplementation” value (control chromatogram subtracted) is reported as “appreciable amount of CoQ10 in the heart tissue; also recorded: significantly high enrichment in the CoQ10 content”.
